Assay results reported in patent publication US10357477B2, “Anticancer compounds” (REGENTS OF THE UNIVERSITY OF MINNESOTA, priority 2016, dated 2019).

Columns and labels:
[1] = tested on: MIA PaCa-2 cells; assay: Cell viability assay (MTT) in MIA PaCa-2 cells; assay type: cell-based; conditions: Homo sapiens, antiproliferative activity, 72 h
Protocol: MIA PaCa-2 cells (CRL-1420, ATCC) were maintained in DMEM media supplemented with 10% FBS, 2.5% HS, 1% GlutaMAX, 1% sodium pyruvate, 100 U/mL penicillin, and 100 μg/mL streptomycin. Cell culture media and additives were purchased from Gibco. Cells were plated in 96-well plates at |1−2.5|×10^4 cells per well in the DMEM growth media. One microliter of a 2-fold serially diluted compound solution in DMSO (Sigma) starting at 20 mM (100 μM final concentration) was added to each well. The final volume in each well was 200 μL, yielding a final DMSO concentration of 0.5%. Control wells contained 0.5% DMSO (100% viability) or 25% DMSO (background) and all reactions were done in triplicate. The plate was incubated for 72 h at 37° C. in a 5% CO2/95% air humidified atmosphere.
Measurement of cell viability was carried out using a modified method of Mosmann based on 3-(4,5-dimethylthiazol-2-yl)-2,5-diphenyltetrazolium bromide (MTT, Sigma). MTT solution was prepared fresh at 1 mg/mL in serum-free and phenol red-free RPMI 1640 media. After 200 μL of MTT solution was added to each well, the plate was incubated as described above for 3 h. The MTT solution was removed, and the formazan crystals were solubilized with 200 μL of isopropanol. The plate was read on a SpectraMax i3 spectrophotometer (Molecular Devices) at 570 nm for formazan and 650 nm for background subtraction. EC50 values were calculated by fitting the data in GraphPad Prism software. EC50 values were determined in triplicate.

[2] = tested on: Panc-1 cells; assay: Cell viability assay (MTT) in Panc-1 cells; assay type: cell-based; conditions: Homo sapiens, antiproliferative activity, 72 h
Protocol: Panc-1 cells are maintained in RPMI 1640 (Invitrogen 11875) media supplemented with 10% FBS, 1% Penicillin/Streptomycin and 1% Glutamax-1. Cells were plated in 96-well plates at 25×10^4 cells/ml. After 24 hours, compounds were added at 9, 3× dilutions in triplicate from 100 uM final concentration in the appropriate growth media. Plates were incubated for 72 hours at 37° C. in a 5% CO2/95% air humidified atmosphere after which time the media was removed and MTT was added in RPMI phenol red free media. The MTT was removed after 3 hours and formazan crystals were solubilized with 200 μL of isopropanol. Plates were read on a Molecular Devices SpectraMax i3 spectrophotometer at 570 nm for formazan and 690 nm for background subtraction. EC50 values were calculated by fitting the data in GraphPad Prism software.

EC50 [1] [µM]	EC50 [2] [µM]	SMILES
9.2	11	Cc1nn(Cc2cccc(C(N)=O)c2)c(C)c1NC(=O)c1ccc(COc2ccccc2)cc1 [Compound A2b, N-(1-(3-Carbamoylbenzyl)-3,5-dimethyl-1H-pyrazol-4-yl)-4-(phenoxymethyl)benzamide]
42	> 100	Cc1nn(Cc2ccccc2C(N)=O)c(C)c1NC(=O)c1ccc(COc2ccccc2)cc1 [Compound A2c, N-(1-(2-Carbamoylbenzyl)-3,5-dimethyl-1H-pyrazol-4-yl)-4-(phenoxymethyl)benzamide]
12	36	CNC(=O)c1ccc(Cn2nc(C)c(NC(=O)c3ccc(COc4ccccc4)cc3)c2C)cc1 [Compound A3a, N-(3,5-Dimethyl-1-(4-(methylcarbamoyl)benzyl)-1H-pyrazol-4-yl)-4-(phenoxymethyl)benzamide]
6.2	5.2	CNC(=O)c1cccc(Cn2nc(C)c(NC(=O)c3ccc(COc4ccccc4)cc3)c2C)c1 [Compound A3b, 3-((3,5-Dimethyl-4-(4-(phenoxymethyl)benzamido)-1H-pyrazol-1-yl)methyl)-N-methylbenzamide]
7.7	14	CNC(=O)c1ccccc1Cn1nc(C)c(NC(=O)c2ccc(COc3ccccc3)cc2)c1C [Compound A3c, 2-((3,5-Dimethyl-4-(4-(phenoxymethyl)benzamido)-1H-pyrazol-1-yl)methyl)-N-methylbenzamide]
6.4	1.2	Cc1nn(Cc2cccc(C(=O)N(C)C)c2)c(C)c1NC(=O)c1ccc(COc2ccccc2)cc1 [Compound A4a, 3-((3,5-Dimethyl-4-(4-(phenoxymethyl)benzamido)-1H-pyrazol-1-yl)methyl)-N,N-dimethylbenzamide]
11	1.6	CCNC(=O)c1cccc(Cn2nc(C)c(NC(=O)c3ccc(COc4ccccc4)cc3)c2C)c1 [Compound A4b, 3-((3,5-Dimethyl-4-(4-(phenoxymethyl)benzamido)-1H-pyrazol-1-yl)methyl)-N-ethylbenzamide]
8.9	1.4	Cc1nn(Cc2cccc(C(=O)NC(C)C)c2)c(C)c1NC(=O)c1ccc(COc2ccccc2)cc1 [Compound A4c, 3-((3,5-Dimethyl-4-(4-(phenoxymethyl)benzamido)-1H-pyrazol-1-yl)methyl)-N-isopropylbenzamide]
7.8	23	Cc1nn(Cc2ccc([N+](=O)[O-])cc2)c(C)c1NC(=O)c1ccc(COc2ccccc2)cc1 [Compound A5a, N-(3,5-Dimethyl-1-(4-nitrobenzyl)-1H-pyrazol-4-yl)-4-(phenoxymethyl)benzamide]
11	20	Cc1nn(Cc2cccc([N+](=O)[O-])c2)c(C)c1NC(=O)c1ccc(COc2ccccc2)cc1 [Compound A5b, N-(3,5-Dimethyl-1-(3-nitrobenzyl)-1H-pyrazol-4-yl)-4-(phenoxymethyl)benzamide]
6	5.3	Cc1nn(Cc2ccccc2[N+](=O)[O-])c(C)c1NC(=O)c1ccc(COc2ccccc2)cc1 [Compound A5c, N-(3,5-Dimethyl-1-(2-nitrobenzyl)-1H-pyrazol-4-yl)-4-(phenoxymethyl)benzamide]
> 100	44	Cc1nn(Cc2ccc(N)cc2)c(C)c1NC(=O)c1ccc(COc2ccccc2)cc1 [Compound A6a, N-(1-(4-Aminobenzyl)-3,5-dimethyl-1H-pyrazol-4-yl)-4-(phenoxymethyl)benzamide]
35	9.7	Cc1nn(Cc2cccc(N)c2)c(C)c1NC(=O)c1ccc(COc2ccccc2)cc1 [Compound A6b, N-(1-(3-Aminobenzyl)-3,5-dimethyl-1H-pyrazol-4-yl)-4-(phenoxymethyl)benzamide]
11	22	Cc1nn(Cc2ccccc2N)c(C)c1NC(=O)c1ccc(COc2ccccc2)cc1 [Compound A6c, N-(1-(2-Aminobenzyl)-3,5-dimethyl-1H-pyrazol-4-yl)-4-(phenoxymethyl)benzamide]
50	> 100	CC(=O)Nc1ccc(Cn2nc(C)c(NC(=O)c3ccc(COc4ccccc4)cc3)c2C)cc1 [Compound A7a, N-(1-(4-Acetamidobenzyl)-3,5-dimethyl-1H-pyrazol-4-yl)-4-(phenoxymethyl)benzamide]
2.7	12	CC(=O)Nc1cccc(Cn2nc(C)c(NC(=O)c3ccc(COc4ccccc4)cc3)c2C)c1 [Compound A7b, N-(1-(3-Acetamidobenzyl)-3,5-dimethyl-1H-pyrazol-4-yl)-4-(phenoxymethyl)benzamide]
2.6	31	CC(=O)Nc1ccccc1Cn1nc(C)c(NC(=O)c2ccc(COc3ccccc3)cc2)c1C [Compound A7c, N-(1-(2-Acetamidobenzyl)-3,5-dimethyl-1H-pyrazol-4-yl)-4-(phenoxymethyl)benzamide]
5.4	0.76	CNC(=O)c1cccc(Cn2nc(C)c(NC(=O)c3ccc(CCc4ccccc4)cc3)c2C)c1 [Compound C3, 3-((3,5-Dimethyl-4-(4-phenethylbenzamido)-1H-pyrazol-1-yl)methyl)-N-methylbenzamide]
69	51	CNC(=O)c1cccc(Cn2nc(C)c(NC(=O)c3ccc(C(=O)Nc4ccccc4)cc3)c2C)c1 [Compound C4, N^1-(3,5-Dimethyl-1-(3-(methylcarbamoyl)benzyl)-1H-pyrazol-4-yl)-N^4-phenylterephthalamide]
8.2	6	CNC(=O)c1cccc(Cn2nc(C)c(NC(=O)c3ccc(OCc4ccccc4)cc3)c2C)c1 [Compound C5, 3-((4-(4-(Benzyloxy)benzamido)-3,5-dimethyl-1H-pyrazol-1-yl)methyl)-N-methylbenzamide]
6	1.3	CNC(=O)c1cccc(Cn2nc(C)c(NC(=O)c3ccc(COc4cccc5ccccc45)cc3)c2C)c1 [Compound D2, 3-((3,5-Dimethyl-4-(4-((naphthalen-1-yloxy)methyl)benzamido)-1H-pyrazol-1-yl)methyl)-N-methylbenzamide]
2.1	0.61	CNC(=O)c1cccc(Cn2nc(C)c(NC(=O)c3ccc(COc4ccccc4C)cc3)c2C)c1 [Compound D3a, 3-((3,5-Dimethyl-4-(4-((o-tolyloxy)methyl)benzamido)-1H-pyrazol-1-yl)methyl)-N-methylbenzamide]
6.2	0.56	CNC(=O)c1cccc(Cn2nc(C)c(NC(=O)c3ccc(COc4cccc(C)c4)cc3)c2C)c1 [Compound D3b, 3-((3,5-Dimethyl-4-(4-((m-tolyloxy)methyl)benzamido)-1H-pyrazol-1-yl)methyl)-N-methylbenzamide]
2.6	13	CNC(=O)c1cccc(Cn2nc(C)c(NC(=O)c3ccc(COc4ccc(C)cc4)cc3)c2C)c1 [Compound D3c, 3-((3,5-Dimethyl-4-(4-((p-tolyloxy)methyl)benzamido)-1H-pyrazol-1-yl)methyl)-N-methylbenzamide]
8.5	25	CNC(=O)c1cccc(Cn2nc(C)c(NC(=O)c3ccc(COc4ccccc4OC)cc3)c2C)c1 [Compound D4a, 3-((4-(4-((2-Methoxyphenoxy)methyl)benzamido)-3,5-dimethyl-1H-pyrazol-1-yl)methyl)-N-methylbenzamide]
6.2	6.2	CNC(=O)c1cccc(Cn2nc(C)c(NC(=O)c3ccc(COc4cccc(OC)c4)cc3)c2C)c1 [Compound D4b, 3-((4-(4-((3-Methoxyphenoxy)methyl)benzamido)-3,5-dimethyl-1H-pyrazol-1-yl)methyl)-N-methylbenzamide]
8	48	CNC(=O)c1cccc(Cn2nc(C)c(NC(=O)c3ccc(COc4ccc(OC)cc4)cc3)c2C)c1 [Compound D4c, 3-((4-(4-((4-Methoxyphenoxy)methyl)benzamido)-3,5-dimethyl-1H-pyrazol-1-yl)methyl)-N-methylbenzamide]
6.3	9.9	CNC(=O)c1cccc(Cn2nc(C)c(NC(=O)c3ccc(COc4ccccc4Cl)cc3)c2C)c1 [Compound D5a, 3-((4-(4-((2-Chlorophenoxy)methyl)benzamido)-3,5-dimethyl-1H-pyrazol-1-yl)methyl)-N-methylbenzamide]
5.9	0.038	CNC(=O)c1cccc(Cn2nc(C)c(NC(=O)c3ccc(COc4cccc(Cl)c4)cc3)c2C)c1 [Compound D5b, 3-((4-(4-((3-Chlorophenoxy)methyl)benzamido)-3,5-dimethyl-1H-pyrazol-1-yl)methyl)-N-methylbenzamide]
